Test results published in US20070259866A1, “Method of Adenovirus, HIV and HPV Prophylaxis” (priority 1999, published 2007).
Entries after “also recorded” stand apart in the source; their conditions may differ.

Columns and labels:
adenovirus = test: Inhibition of adenovirus infection in 293T cells in vitro; format: cell-based
Source text: Compound 96 inhibited adenovirus infection 100% in 293T cells in vitro.

[1] = test system: NL-HX (T cell-tropic isolate) Virus; test: Inactivation of HIV stock by 1 hr drug treatment, then PBMC infection, fluorescent focus assay (NL-HX); format: cell-based, Human Immunodeficiency Virus (HIV); conditions: for Average # infected cells/area / # infected cells/area (~500 cells): 8 days; for # infected cells/area (~500 cells): single area counts
Experimental: In a study of the prophylactic effects of Compound 96 on Human Immunodeficiency Virus (HIV), virus stock solutions were inactivated by treatment with Compound 96. Stock solutions of viral types NL-HX-ADA having a p24 concentration of 4.1 μg/ml and NL-HX (P122) having a p24 concentration of 3.8 μg/ml were used for the study, along with a stock solution of Compound 96 having a concentration of 20 mg/ml in RPMI media.
Concentrated stock solution of viruses were treated for 1 hr with equal volume of medium containing the drug at the following concentrations:
After the 1 hr treatment period, the virus-drug solutions were diluted 1:1,000 with complete medium, and then mixed with an equal volume of Peripheral Blood Mononucleocyte (PBMC) cells, for a final dilution of virus and drug of 1:4,000.
The infected cultures were then incubated without any washing or other changes in media for 4 days (for the M-tropic NL-HX-ADA type) and 8 days (for the T-tropic NL-HX type). The cultures were then assayed for infection using standard fluorescent focus assays to quantitate infected cells.

[2] = Mouse mortality, survival and weight change in the HPV-11 xenograft SCID mouse experiment; format: in vivo, scid/scid mice; conditions: for Mouse Status at the end of the Experiment: Alive / Mouse Status at the end of the Experiment: Dead: of 12 mice
Source text: Each experiment was done in quadruplicate. Twelve mice were used in each replicate. For each replicate, the four treatment groups were made of 3 mice (3 animals per cage). Each mouse received under the skin of each flank one HPV-11-infected foreskin fragment. Two foreskin donors were used, one for the fragments implanted under the left flank and a different one for the fragments implanted under the right flank. The HPV-11-infected grafts were left to grow for 12 weeks, while the mice weights were monitored every other week. At the end of the 12 weeks, the animals were sacrificed and the grafts recovered, measured and processed.
Six to 7 week old male scid/scid mice were used
The animals were monitored weekly. They were weighed at the time of grafting, and every other week during the 12 weeks of the experiment.
Animals were to be prematurely euthanitized if during monitoring any of the following criteria were met: • greater than 10% weight loss; • bleeding or bruising; • inability to maintain righting reflex; • inability to move about; • inability to eat or drink; • tumor greater than 30% of the animal's body weight.
The animals were otherwise sacrificed by cervical dislocation 12 weeks after graft implantation. Length, width, and height of the graft were measured and recorded. The graft were then removed and split in at least two parts. One part was fixed in buffered formalin. The other part was either left as is, or subdivided for subsequent analyses in as many fragments as size permitted. These fragments were placed in a sterile labelled vial and frozen in liquid nitrogen before being transferred to a −80° C. freezer.
Those animals dying unexpectedly before the date of the scheduled euthanasia had their grafts measured and fixed in formalin, if body decomposition was not too advanced.

[3] = virus treated 1 hr at 0.625 mg/ml
[4] = virus treated 1 hr at 1.25 mg/ml
[5] = virus treated 1 hr at 2.5 mg/ml

With CC1=CC(C)=[N+]2CC[N+]3=C(C)C=C(C)[O][Co-4]23([n+]2cc[nH]c2C)([n+]2cc[nH]c2C)[O]1.[Br-] [Compound 96] the inhibited adenovirus infection (adenovirus) was 100%, the reduction in infectivity ([1]; any drug-treated sample vs control infection (800-1200 infected cells per well)) was ≥ 1,000 fold and the “infected cells when the entire well was scanned” value ([1]; any of the drug-treated samples) was “No infected cells were detected”. For the same compound, the “inactivation of treated virus” value ([1]; even at the lowest concentration of drug tested (0.625 mg/ml), 1 hr treatment) was “completely inactivated”, the “Average # infected cells/area” value [1, 3] was 0 cells/area and the “# infected cells/area (~500 cells)” value [1, 3] was 0 cells/area. The “Average # infected cells/area” value [1, 4] was 0 cells/area, the “# infected cells/area (~500 cells)” value [1, 4] was 0 cells/area and the “Average # infected cells/area” value [1, 5] was 0 cells/area. For the same compound, the “# infected cells/area (~500 cells)” value [1, 5] was 0 cells/area, the “Average # infected cells/area” value ([1]; virus treated 1 hr at 5 mg/ml) was 0 cells/area and the “# infected cells/area (~500 cells)” value ([1]; virus treated 1 hr at 5 mg/ml) was 0 cells/area. The “Average # infected cells/area” value ([1]; virus treated 1 hr at 10 mg/ml) was 0 cells/area, the “# infected cells/area (~500 cells)” value ([1]; virus treated 1 hr at 10 mg/ml) was 0 cells/area and the “Mouse Survival, Lower Quartile” value ([2]; CTC 96 0.05%) was 84.00 days. The “Mouse Survival, Means” value ([2]; CTC 96 0.05%) was 83.167 days, the “Mouse Survival, Median” value ([2]; CTC 96 0.05%) was 84.00 days and the “Mouse Survival, Upper Quartile” value ([2]; CTC 96 0.05%) was 84.00 days. The “Mouse Weight Changes during the Experiment, Lower Quartile” value ([2]; CTC 96 0.05%) was 12.32%, the “Mouse Weight Changes during the Experiment, Means” value ([2]; CTC 96 0.05%) was 13.12% and the “Mouse Weight Changes during the Experiment, Median” value ([2]; CTC 96 0.05%) was 14.16%. For the same compound, the “Mouse Weight Changes during the Experiment, Upper Quartile” value ([2]; CTC 96 0.05%) was 15.62%, the “Mouse Status at the end of the Experiment: Alive” value (“Mouse Status at the end … Alive” for short) ([2]; CTC 96 0.05%) was 11 and the “Mouse Status at the end of the Experiment: Dead” value (from here on “Mouse Status at the end … Dead”) ([2]; CTC 96 0.05%) was 1. The “Mouse Survival, Lower Quartile” value ([2]; CTC 96 0.2%) was 57.50 days, the “Mouse Survival, Means” value ([2]; CTC 96 0.2%) was 69.83 days and the “Mouse Survival, Median” value ([2]; CTC 96 0.2%) was 84.00 days. For the same compound, the “Mouse Survival, Upper Quartile” value ([2]; CTC 96 0.2%) was 84.00 days, the “Mouse Weight Changes during the Experiment, Lower Quartile” value ([2]; CTC 96 0.2%) was 11.48% and the “Mouse Weight Changes during the Experiment, Means” value ([2]; CTC 96 0.2%) was 15.77%. The “Mouse Weight Changes during the Experiment, Median” value ([2]; CTC 96 0.2%) was 11.77%, the “Mouse Weight Changes during the Experiment, Upper Quartile” value ([2]; CTC 96 0.2%) was 24.80% and the “Mouse Status at the end … Alive” value ([2]; CTC 96 0.2%) was 8. The “Mouse Status at the end … Dead” value ([2]; CTC 96 0.2%) was 4, the “Mouse Survival, Lower Quartile” value ([2]; CTC 96 1%) was 84.00 days and the “Mouse Survival, Means” value ([2]; CTC 96 1%) was 84.00 days. For the same compound, the “Mouse Survival, Median” value ([2]; CTC 96 1%) was 84.00 days, the “Mouse Survival, Upper Quartile” value ([2]; CTC 96 1%) was 84.00 days and the “Mouse Weight Changes during the Experiment, Lower Quartile” value ([2]; CTC 96 1%) was 5.926%. For the same compound, the “Mouse Weight Changes during the Experiment, Means” value ([2]; CTC 96 1%) was 9.96%, the “Mouse Weight Changes during the Experiment, Median” value ([2]; CTC 96 1%) was 9.00% and the “Mouse Weight Changes during the Experiment, Upper Quartile” value ([2]; CTC 96 1%) was 12.40%. The “Mouse Status at the end … Alive” value ([2]; CTC 96 1%) was 12, the “Mouse Status at the end … Dead” value ([2]; CTC 96 1%) was 0 and the “effect on mouse weight gain” value ([2]; all treatment groups, drug used only to inactivate HPV-11 in vitro) was “no effect”. The “effect on mouse mortality (number of deaths, length of survival)” value ([2]; all treatment groups, drug used only to inactivate HPV-11 in vitro, listed as CTC 96) was “no differences among the treatment groups; also recorded: no effect”.
